# Measurements reported in patent publication US20260263429A1, “INHIBITORS OF CA 2+/CALMODULIN-DEPENDENT PROTEIN KINASE II (CAMKII) THAT DO NOT INHIBIT LONG-TERM POTENTIATION (LTP) INDUCTION AND THERAPEUTIC USES THEREOF” (The Regents of the University of Colorado, A Body Corporate, priority 2023, published 2026).
# What was measured:
# [1] = tested on: LTP in CaMKII T286A slices; experiment: LTP induction in hippocampal slices from CaMKII T286A mutant mice; assay type: cell-based, mouse; conditions: 10 μM inhibitor
# [2] = tested on: paCaMKII F89G movement to synapses and spine growth; experiment: Photoactivation of paCaMKII F89G in hippocampal neurons (structural LTP); assay type: cell-based; conditions: NM-PP1 10 μM
# Source text: In this Example, two sets of pharmacogenetic tools were used in combination with the photoactivable paCaMKII to test whether structural CaMKII functions are not only the necessary but also the sufficient CaMKII functions in LTP. Specifically, in one exemplary method, hippocampal neurons were examined for sLTP (e.g., the LTP-associated growth of dendritic spines) in response to direct photoactivation of paCaMKII without any other stimulation that could trigger additional signaling pathways. […] In both cases, suppressing enzymatic CaMKII activity while allowing or enhancing GluN2B binding enabled induction of structural LTP.
# paCaMKII stimulation in hippocampal neurons. […] Neurons were then imaged 15 minutes after stimulation and assessed for CaMKII synaptic enrichment and dendritic spine growth.
# Image analysis of hippocampal neurons. […] 2D maximum intensity projection images were then generated and analyzed using a custom-build program in ImageJ. The program utilizes combinatorial thresholding to mask regions of the cell that contain high intensity PSD-95 puncta (the post-synaptic side of excitatory synapses in dendritic spines) and regions of the dendritic shaft that contain no fluorescence intensity of PSD-95. […] Spine growth was assessed by measuring the changes in mCherry cell fill fluorescence intensity within dendritic spine ROIs (F/F0).
Structure (SMILES),LTP induction in slices from T286A mutant mice [1],CaMKII movement after photoactivation of paCaMKII F89G [2]
NCCNc1cccc(-c2ccnc3[nH]c4ccccc4c23)c1 [AS283],enabled LTP,
CC(C)(C)n1nc(Cc2cccc3ccccc23)c2c(N)ncnc21 [NM-PP1],,enabled similar movement
